pEC50: −log10 of the molar value. Read-outs that look alike come from different tables or passages of the source. Residues, ends and D or L forms follow the SMILES beside them. *: point of attachment. X1 = CCCCCCCCCCCCCCCC(=O)OCC(C*)OC(=O)CCCCCCCCCCCCCCC
Legend:
[1] = dog plasma, 37° C., 4 h time course
[2] = human plasma, 37° C., 4 h time course
in vitro [3] = settings: rat, plasma
in vitro [4] = settings: rat, hepatocytes
in vitro [5] = settings: dog, hepatocytes
in vitro [6] = settings: cynomolgus monkey, hepatocytes
in vitro [7] = settings: human, hepatocytes
human TLR2 [8] = target: T1, human TLR2 (Homo sapiens, UniProt O60603); assay: NF-kB activation in HEKBlue-hTLR2 cell line (SEAP reporter); format: cell-based
T1 construct: host or cells: HEK-Blue hTLR2 (HEK293-derived) cell line
Experimental: The potency of the compounds as activators of human and mouse TLR-2s was tested in an in vitro assay. The assay assesses NF-kB activation in the HEKBlue-mTLR-2 cell line. These cells have been stably transfected with mouse TLR-2 and express TLR-1 and TLR-6 endogenously at sufficient levels to allow for fully-functional TLR-1/2 and TLR-2/6 activation.
(§1) Toll-Like Receptor 2 (TLR2) stimulation is tested by assessing NF-kB activation in the HEKBlue-hTLR2 cell line. These cells have been stably transfected with human TLR2 and express TLR1 and TLR6 endogenously at a level sufficient to allow for fully-functional TLR1/2 and TLR2/6 activation. The activity of the test articles are tested on human TLR2 as potential agonists. The test articles are evaluated at seven concentrations and compared to control ligands. These steps are performed in triplicate.
as §1, with “stimulation was” for “stimulation is”, “assessing N-kB” for “assessing NF-kB”, “the HEK-Blue hTLR2” for “the HEKBlue-hTLR2”, “articles were” for “articles are”, “control ligands (see list below).” for “control ligands.”, “steps were” for “steps are”
The secreted embryonic alkaline phosphatase (SEAP) reporter is under the control of a promoter inducible by the transcription factor NF-κB. This reporter gene allows the monitoring of signaling through the TLR, based on the activation of NF-κB. In a 96-well plate (200 μL total volume) containing the appropriate cells (50,000-75,000 cells/well), 20 μL of the test article or the positive control ligand is added to the wells. The media added to the wells is designed for the detection of NF-κB induced SEAP expression. After a 20 hour incubation the optical density (OD) is read at 650 nm on a Molecular Devices SpectraMax 340PC absorbance detector.

[9] = test system: A/Udorn/307/72 (H3N2) influenza virus; format: in vivo, C57BL/6 mice; settings: n=5, day 5 (Example 4)
human TLR2 [10] = target: T1, human TLR2; assay: NF-κB luciferase reporter assay in HEK293T cells transfected with human TLR2 plasmid; format: cell-based; settings: dose range tested (12.2 pM to 3.125 pM), Example 9
Experimental: Comparison of the abilities of various compounds to stimulate luciferase activity in an NF-κB cell-based reporter system was determined. Compounds tested include INNA-006 (or compound (1)); INNA-013 (or compound (4)); INNA-014 (or compound (3)); INNA-015 (or compound (2)); INNA-010; INNA-011 (or compound (5)); INNA-012 (or compound (6)); and INNA-009. HEK293T cells, transiently co-transfected with a human TLR2 plasmid and a luciferase-NF-κB plasmid reporter system, were exposed to various dilutions of each compound. Successful receptor binding and subsequent signal transduction events were determined by measuring the luminescence due to luciferase activity (results shown in FIG. 11—left to right columns for each concentration are in the following order INNA-006 (or compound (1)); INNA-013 (or compound (4)); INNA-014 (or compound (3)); INNA-015 (or compound (2)); INNA-010; INNA-011 (or compound (5)); INNA-012 (or compound (6)); and INNA-009.
Comparison of the in vitro TLR2 agonistic activity of Pam3Cys-Ser-PEG3000 and INNA-006: HEK293T cells, transiently co-transfected with a human TLR2 plasmid and a luciferase-NF-κB plasmid reporter system, were exposed to various dilutions of INNA-006 or Pam3Cys-Ser-PEG3000. […]

Solubility in water = format: physicochemical

T1 sequence (O60603 21-784): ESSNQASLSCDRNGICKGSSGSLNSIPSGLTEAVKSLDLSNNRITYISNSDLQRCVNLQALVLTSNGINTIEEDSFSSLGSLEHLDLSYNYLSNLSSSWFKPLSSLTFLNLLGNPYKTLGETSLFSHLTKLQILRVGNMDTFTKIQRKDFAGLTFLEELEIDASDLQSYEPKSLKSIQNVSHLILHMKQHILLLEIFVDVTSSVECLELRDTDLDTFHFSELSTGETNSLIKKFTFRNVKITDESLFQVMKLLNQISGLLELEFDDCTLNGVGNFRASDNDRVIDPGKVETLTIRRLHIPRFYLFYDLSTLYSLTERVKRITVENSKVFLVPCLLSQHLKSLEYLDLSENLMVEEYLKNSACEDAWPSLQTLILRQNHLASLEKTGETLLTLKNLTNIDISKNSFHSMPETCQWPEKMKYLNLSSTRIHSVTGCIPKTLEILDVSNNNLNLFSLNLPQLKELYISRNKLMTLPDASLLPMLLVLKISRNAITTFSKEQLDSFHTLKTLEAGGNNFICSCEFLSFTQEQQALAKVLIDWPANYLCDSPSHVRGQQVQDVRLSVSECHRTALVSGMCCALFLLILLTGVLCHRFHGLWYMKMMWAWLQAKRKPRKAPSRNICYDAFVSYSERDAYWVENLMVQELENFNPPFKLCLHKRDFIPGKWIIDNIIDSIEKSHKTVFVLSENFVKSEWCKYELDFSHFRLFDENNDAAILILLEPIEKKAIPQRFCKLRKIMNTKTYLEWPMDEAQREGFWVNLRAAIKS
T1 sequence (Q9Y2C9 32-796 partner): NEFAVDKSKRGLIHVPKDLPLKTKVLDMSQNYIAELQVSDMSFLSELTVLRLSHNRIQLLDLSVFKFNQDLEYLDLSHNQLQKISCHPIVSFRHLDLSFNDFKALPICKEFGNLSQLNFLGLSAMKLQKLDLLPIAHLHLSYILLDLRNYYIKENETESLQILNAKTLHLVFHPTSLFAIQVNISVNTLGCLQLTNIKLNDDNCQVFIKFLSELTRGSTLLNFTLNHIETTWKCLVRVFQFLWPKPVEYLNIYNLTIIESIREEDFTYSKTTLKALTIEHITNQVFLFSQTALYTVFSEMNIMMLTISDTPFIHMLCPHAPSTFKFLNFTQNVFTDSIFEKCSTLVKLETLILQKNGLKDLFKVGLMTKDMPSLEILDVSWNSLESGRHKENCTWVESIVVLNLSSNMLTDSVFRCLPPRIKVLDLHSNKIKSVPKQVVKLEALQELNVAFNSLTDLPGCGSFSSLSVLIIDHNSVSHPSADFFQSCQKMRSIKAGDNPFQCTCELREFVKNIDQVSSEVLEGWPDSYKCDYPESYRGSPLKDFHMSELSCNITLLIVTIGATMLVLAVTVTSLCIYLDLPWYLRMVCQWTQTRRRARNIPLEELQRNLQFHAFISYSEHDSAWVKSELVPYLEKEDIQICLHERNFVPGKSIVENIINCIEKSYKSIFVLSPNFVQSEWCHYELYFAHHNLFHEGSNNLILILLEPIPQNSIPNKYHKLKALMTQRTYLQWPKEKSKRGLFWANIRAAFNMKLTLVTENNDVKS

Q: With `CCCCCCCCCCCCCCCC(=O)OCC(CSC[C@H](N)C(=O)N[C@@H](CO)C(=O)NCCOCCOCCOCCOCCOCCOCCOCCOCCOCCOCCOCCOCCOCCOCCOCCOCCOCCOCCOCCOCCOCCOCCOCCOCCOCCOCCOCCOCCC(=O)NCC(N)=O)OC(=O)CCCCCCCCCCCCCCC` (stereo partly drawn) [INNA-011] as the compound, how does the plasma half-life [1] read?
A: could not be calculated due to insufficient degradation

Q: And the plasma half-life [2]?
A: could not be calculated due to insufficient degradation

Q: And the half-life (in vitro [3])?
A: 5.9 h

Q: What about the half-life at 0.5 μM (in vitro [4]) of the same compound?
A: > 6.25 h

Q: And the hepatocyte CLint at 0.5 μM (in vitro [4])?
A: ≤ 2 µL/min/1e6 cells

Q: What about the half-life at 0.5 μM (in vitro [5]) of the same compound?
A: 4.73 h

Q: And the hepatocyte CLint at 0.5 μM (in vitro [5])?
A: ≤ 2 µL/min/1e6 cells

Q: And the half-life at 0.5 μM (in vitro [6])?
A: 2.88 h

Q: And the hepatocyte CLint at 0.5 μM (in vitro [6])?
A: ≤ 2 µL/min/1e6 cells

Q: What about the half-life at 0.5 μM (in vitro [7]) of the same compound?
A: 5.47 h

Q: And the hepatocyte CLint at 0.5 μM (in vitro [7])?
A: ≤ 2 µL/min/1e6 cells

Q: With `CCCCCCCCCCCCCCCC(=O)OCC(CSCC(N)C(=O)NC(CO)C(=O)NC(CCCCN)C(=O)NC(CCCCN)C(=O)NC(CCCCN)C(=O)NC(CCCCN)C(=O)O)OC(=O)CCCCCCCCCCCCCCC` (stereo not drawn) [INNA-005, Pam2Cys—Ser—Lys—Lys—Lys—Lys, reference compound] (H-C(X1)SKKKK-OH; configuration not given here) as the compound, how does the “TLR2 activation, potency in words” value (human TLR2 [8]; Example 2) read?
A: activated human TLR2

Q: What about the pEC50 (human TLR2 [8]; agonist activity against Human TLR-2 in vitro) of the same compound?
A: 11.43

Q: And the “progression of influenza virus to the lungs (lung viral titre)” value (“progression of influenza virus” for short) ([9]; 0.005 nmoles intranasal 1 day prior to 500 pfu Udorn challenge)?
A: partial inhibition

Q: And the “progression of influenza virus” value ([9]; 0.1 nmoles intranasal 1 day prior to 500 pfu Udorn challenge)?
A: partial inhibition

Q: What about the “progression of influenza virus” value ([9]; 5 nmoles intranasal 1 day prior to 500 pfu Udorn challenge) of the same compound?
A: partial inhibition

Q: Which “ability to signal NF-κB compared with INNA-006” value (human TLR2 [10]) does the source give for Pam3Cys-Ser-PEG3000 here?
A: inferior to INNA-006

Q: And the solubility in water (Solubility in water)?
A: readily soluble in water

Reference: patent US12195557B2, “Optimised compounds” (AXELIA ONCOLOGY PTY LTD, priority 2017, dated 2025)
